# Measurements published in patent publication US4723039A, “Phenylacetaldehydes substituted by basic groups, their preparation and drugs containing these compounds” (BASF Aktiengesellschaft, priority 1985, dated 1988).
# Structures can show the parent of a compound that is named as a salt.
# Tests used:
# [1] = test system: Histamine-induced bronchospasm; experiment: Broncholytic action, histamine-induced bronchospasm; type: in vivo; details: guinea pig, intravenous; for ED75: Cavia porcellus, 75% reduction in bronchospasms, read-out: ED 75% histamine-induced bronchospasm; for Broncholytic activity compared with verapamil, histamine-induced (in words): text does not separate the inducers
# Text: (§1) The animals were artificially ventilated using a Starling pump.
# [2] = test system: Acetylcholine-induced bronchospasm; experiment: Broncholytic action, acetylcholine-induced bronchospasm; type: in vivo; details: guinea pig, intravenous; for ED75: Cavia porcellus, 75% reduction in bronchospasms, read-out: ED 75% acetylcholine-induced bronchospasm; for Broncholytic activity compared with verapamil, acetylcholine-induced (in words): text does not separate the inducers
# Text: as §1
# [3] = test system: isolated spiral strips of aorta; experiment: Calcium-antagonistic action in isolated spiral strips of aorta; parameters: species or system Sprague-Dawley rat; details: in vitro; for EC50: Rattus norvegicus, 50% inhibition of the effect of 0.5 mM Ca++, K-depolarized strips, read-out: Ca-antagonistic action EC 50%; for Ca-antagonistic activity compared with verapamil (in words): rat aorta strips
# Description: The Ca-antagonistic action was tested on spiral strips of aorta of male and female Sprague-Dawley rats weighing from 200 to 300 g.
# The animals were sacrificed with ether, and the thorax and thoracic aorta were removed. A maximum of 6 spiral strips about 2 mm wide and 2 cm long were used per animal.
# The strips of aorta were suspended in a modified tyrode solution at 37° C. and subjected to an initial tension with a load of 1.5 g and, after a relaxation time of about 1 hour, Ca was removed by keeping them for 5 minutes in Ca-free tyrode solution with the addition of 0.2 mM of Na EDTA.
# The Ca-free strips of vessel were depolarized with K-rich tyrode solution for 10 minutes. Contraction was induced by a CaCl2 concentration of 0.5 mM. After 15 minutes, Ca was again removed from the strips of vessel by means of a Ca-free tyrode solution containing 0.2 mM of Na EDTA.
# Depolarization was then effected again for 10 minutes with K-rich tyrode solution, after which 0.05 ml of the test substance was added. After the test substance had been allowed to act for 15 minutes, CaCl2 was again added in a concentration of 0.5 mM in order to check whether the test substance has a Ca-antagonistic action. Inhibition of the effect of 0.5 mM Ca^++ by the antagonistic substance is stated as a percentage.
# systolic blood pressure = experiment: Antihypertensive action in spontaneously hypertensive rats; type: in vivo, spontaneously hypertensive male Okamoto rat; details: for Reduction in blood pressure, p.o., R.A. / ED20: SH rat, p.o.; for Reduction in blood pressure, p.o., R.A.: verapamil = 1.00; for ED20: po, 2 hours after administration, 20% reduction in systolic pressure, read-out: Reduction in blood pressure ED 20% p.o.
# Description: To determine the antihypertensive action, the substances were administered orally to spontaneously hypertensive male Okamoto rats (4-8 animals/dose, weight 270-360 g). The systolic blood pressure was measured noninvasively on the rat's tail with the aid of piezoelectric transducers, before and 2 hours after administration. The dose which reduces the systolic pressure by 20%, relative to the values for untreated control animals, was determined as the ED 20%.
# blood pressure = experiment: Hypotensive action in anesthetized rats; type: in vivo, Sprague-Dawley rat; details: anesthetized rat; for Reduction in blood pressure, i.v., R.A.: verapamil = 1.0; for ED20: iv, 20% decrease in blood pressure, read-out: Reduction in blood pressure ED 20% i.v.
# Description: The blood pressure was measured in the carotid artery. The substances were administered intravenously into the jugular vein. The dose which produces a 20% decrease in blood pressure was calculated as the ED 20%, from the linear regression of log dose (mg/kg) and relative decrease in blood pressure (Δ%).
# [4] = test system: lesions of the gastric mucous membrane; experiment: Cytoprotective action (ethanol-induced gastric lesions); type: in vivo, Sprague-Dawley rat (female); details: rat, oral; for ED50: dose reducing lesions by 50%, read-out: Cytoprotective effect ED 50%
# Description: The cytoprotective action was determined on groups of 8 female Sprague-Dawley rats weighing 160-190 g, the rats having received no food for 48 hours (water ad libitum) and having been pretreated with different doses of the test substances, administered orally. 1 hour later, 10 ml/kg of 100% ethanol were administered orally to the animals. After a further hour, the animals were sacrificed by inhalation of CO2, the stomach was removed and the intensity of the lesions was assessed on the basis of the following scheme:
# 0=unchanged mucous membrane
# 1=a few areas of reddening which are narrow, elongated or small
# 2=reddening over broad, elongated or large interrupted areas
# 3=pronounced reddening which colors virtually the entire mucous membrane of the glandular stomach.
# [5] = test system: secretion of gastric acid; experiment: Inhibition of secretion of gastric acid; type: in vivo, Sprague-Dawley rat (female); details: rat, oral; for ED (0.75 pH units): 1 h, dose increasing gastric mucosal surface pH by 0.75 pH units, read-out: Acid secretion-inhibiting effect ED 0.75; for Gastric acid secretion-inhibiting dose relative to verapamil: fraction of the dose required of verapamil
# Description: Inhibition of the secretion of gastric acid is evident from an increase in the pH of the surface of the gastric mucous membrane. For this measurement, groups of from 5 to 10 female Sprague-Dawley rats weighing 160-190 g, which had remained without food for 48 hours (water ad libitum), were pretreated with different doses of the test substances, administered orally. […] The dose which produces an increase in the pH by 0.75 pH units is determined as the ED 0.75, from the linear regression of log dose and the increase in the pH.
# [6] = test system: ulcerous lesions on the mucous membrane; experiment: Antiulcerous action (reserpine/indomethacin-induced gastric ulceration); type: in vivo, Sprague-Dawley rat (female); details: rat, oral; for ED50: dose reducing ulcerous area by 50%, read-out: Antiulcerous effect ED 50%
# Description: To investigate the antiulcerous action, groups of 10 female Sprague-Dawley rats weighing 160-180 g received 1 mg/kg of reserpine, administered intraperitoneally, and thereafter remained without food for 18 hours (water ad libitum). […] Thereafter, they were kept for 6 hours at 8° C. and then sacrificed. The stomach was removed and the area of the ulcerous lesions on the mucous membrane was determined.
Structure (SMILES),EC50 [3] [nM],ED75 [1] [mg/kg],"Broncholytic activity compared with verapamil, histamine-induced (in words) [1]",ED75 [2] [mg/kg],"Broncholytic activity compared with verapamil, acetylcholine-induced (in words) [2]",ED (0.75 pH units) [5] [mg/kg],Ca-antagonistic activity compared with verapamil (in words) [3],other results
"COc1ccc(CCN(C)CCCC(C=O)(c2ccc(OC)c(OC)c2)C(C)C)cc1OC (stereo not drawn) [Example 8, 2-[3-[(3,4-Dimethoxyphenylethyl)-methylamino]-propyl]-2-isopropyl-3,4-dimethoxyphenylacetaldehyde]",–,0.38,substantially higher activity,0.23,substantially higher activity,–,–,–
"CC(C)[C@@](C=O)(CCCN(C)CCc1ccccc1)c1ccccc1 [Example 2, (S)-2-[3-[(Phenylethyl)-methylamino]-propyl]-2-isopropylphenylacetaldehyde hydrochloride]",–,–,–,–,–,2,–,ED50 [4]: 9.4 mg/kg; Gastric acid secretion-inhibiting dose relative to verapamil [5]: one-fifth; ED50 [6]: 12.2 mg/kg
"CC(C)[C@](C=O)(CCCN(C)CCc1ccccc1)c1ccccc1 [Example 3, (R)-2-[3-[(Phenylethyl)-methylamino]-propyl]-2-isopropylphenylacetaldehyde hydrochloride]",–,–,–,–,–,2.1,–,ED50 [4]: 8.3 mg/kg; Gastric acid secretion-inhibiting dose relative to verapamil [5]: one-fifth; ED50 [6]: 3.8 mg/kg
"COc1cccc(CCN(C)CCCC(C=O)(c2cc(OC)c(OC)c(OC)c2)C(C)C)c1 (stereo not drawn) [Example 9, 2-[3-[(3-Methoxyphenylethyl)-methylamino]-propyl]-2-isopropyl-3,4,5-trimethoxyphenylacetaldehyde hydrogen oxalate]",1.2,–,–,–,–,–,substantially higher activity,–
"COc1ccc(CCN(C)CCCC(C#N)(c2ccc(OC)c(OC)c2)C(C)C)cc1OC (stereo not drawn) [Verapamil, verapamil, reference compound]",35,1.3,–,0.56,–,10.5,–,"Cytoprotective effect ED 50% (no effect) [4]: (2); Reduction in blood pressure, p.o., R.A. (systolic blood pressure): 1.00; ED20 (systolic blood pressure): 25 mg/kg; Antiulcerous effect ED 50% (no effect) [6]: (2); Reduction in blood pressure, i.v., R.A. (blood pressure): 1.0; ED20 (blood pressure; i.v.): 0.34 mg/kg"
"COc1cccc(CCN(C)CCCC(C=O)(c2ccc(OC)c(OC)c2)C(C)C)c1 (stereo not drawn) [Example 6, 2-[3-[(3-Methoxyphenylethyl)-methylamino]-propyl]-2-isopropyl-3,4-dimethoxyphenylacetaldehyde]",–,0.59,substantially higher activity,0.39,substantially higher activity,–,–,–

# Continued, in another order:
EC50 [3] [nM],Structure (SMILES),ED75 [1] [mg/kg],"Broncholytic activity compared with verapamil, histamine-induced (in words) [1]",ED75 [2] [mg/kg],"Broncholytic activity compared with verapamil, acetylcholine-induced (in words) [2]",ED (0.75 pH units) [5] [mg/kg],Ca-antagonistic activity compared with verapamil (in words) [3],other results
32,"CCOc1cc(CCN(C)CCCC(C=O)(c2cc(OCC)cc(OCC)c2)C(C)C)cc(OCC)c1 (stereo not drawn) [Example 12, 2-[3-[(3,5-Diethoxyphenylethyl)-methylamino]-propyl]1-2-isopropyl-3,5-diethoxyphenylacetaldehyde hydrogen oxalate]",0.65,substantially higher activity,0.27,substantially higher activity,–,–,"Reduction in blood pressure, p.o., R.A. (systolic blood pressure): 6.25; Blood pressure reducing dose, times smaller compared with verapamil (systolic blood pressure; conscious spontaneously hypertensive rats, oral): 6.3 times; ED20 (systolic blood pressure): 4 mg/kg; Reduction in blood pressure, i.v., R.A. (blood pressure): 1.13; Reduction of blood pressure compared with verapamil (in words) (blood pressure; i.v.): reduces the blood pressure to a somewhat greater extent than verapamil; ED20 (blood pressure; i.v.): 0.3 mg/kg"
19,"COc1ccc(CCN(C)CCCC(C=O)(c2cc(OC)c(OC)c(OC)c2)C(C)C)cc1OC (stereo not drawn) [Example 10, 2-[3-[3,4-Dimethoxyphenylethyl)-methylamino]-propyl]-2-isopropyl-3,4,5-trimethoxyphenylacetaldehyde hydrogen oxalate]",–,–,–,–,–,substantially higher activity,–
12,"COc1cc(CCN(C)CCCC(C=O)(c2cc(OC)cc(OC)c2)C(C)C)cc(OC)c1 (stereo not drawn) [Example 11, 2-[3-[(3,5-Dimethoxyphenylethyl)-methylamino]-propyl]-2-isopropyl-3,5-dimethoxyphenylacetaldehyde hydrogen oxalate]",–,–,–,–,–,substantially higher activity,–
22,"COc1cccc(CCN(C)CCCC(C=O)(c2cccc(OC)c2)C(C)C)c1 (stereo not drawn) [Example 7, 2-[3-[(3-Methoxyphenylethyl)-methylamino]-propyl]-2-isopropyl-3-methoxyphenylacetaldehyde]",0.61,substantially higher activity,0.67,substantially higher activity,–,–,–
